Results: article PMC10771590, “Pathway crosstalk between the central metabolic and heme biosynthetic pathways in Phanerochaete chrysosporium” (Applied Microbiology and Biotechnology, 2024)

Columns and labels:
CS from rat kidney = system: CS from rat kidney; set-up: method as in Matsuoka and Srere 1973; Lee et al. 1997; conditions: ref Matsuoka and Srere 1973; Lee et al. 1997; cited from earlier work
[1] = system: CS from Drosophila melanogaster; set-up: method as in Matsuoka and Srere 1973; Lee et al. 1997; conditions: ref Matsuoka and Srere 1973; Lee et al. 1997; cited from earlier work
[2] = target: T1, recombinant PcGAPDH (rPcGAPDH) (Phanerodontia chrysosporium, UniProt Q01982); experiment: GAPDH assay and steady-state kinetic analysis; assay type: biochemical, Phanerochaete chrysosporium; conditions: 1 μM inhibitor, 5-min incubation, 0.6 mM GAP3 (Fig. 2C)
T1 construct: 6xHis-tag (pET-30) (cleaved yes); made in house; host or cells: E. coli BL21(DE3)pLysS
T1 sequence (Q01982 whole entry): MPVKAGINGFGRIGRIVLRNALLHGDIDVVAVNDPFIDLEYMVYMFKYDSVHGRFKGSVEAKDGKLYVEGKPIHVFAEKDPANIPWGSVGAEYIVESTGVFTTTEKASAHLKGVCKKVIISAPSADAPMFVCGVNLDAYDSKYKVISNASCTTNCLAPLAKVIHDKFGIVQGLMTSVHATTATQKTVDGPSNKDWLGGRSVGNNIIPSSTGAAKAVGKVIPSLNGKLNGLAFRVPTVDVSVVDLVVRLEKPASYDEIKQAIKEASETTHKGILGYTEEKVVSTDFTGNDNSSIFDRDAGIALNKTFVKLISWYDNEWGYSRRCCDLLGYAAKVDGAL
Description: GAPDH assay was performed as previously described (Campanale et al. [2003]). For steady-state kinetic analysis, the reaction mixture (1 ml) contained 40 mM phosphate (pH 7.6), 5.2 μg recombinant PcGAPDH (rPcGAPDH), 40 mM triethanolamine, 5 mM NAD^+, and 0.6–2 mM glyceraldehyde 3-phosphate (GAP3). Reactions were monitored by the increase in absorbance at 340 nm (ε 6220 M^–1 cm^–1) for 1 min, and initial velocities were determined. Inhibitory experiments were done in the presence of 0–2.5 μM hemin. To examine the effect of hemin on GAPDH kinetics, PcGAPDH was incubated with either buffer (control) or hemin for 5 min prior to initiating the reaction. Kinetic parameters were determined from Lineweaver–Burk plots, and Ki values were determined from the secondary plot of each slope of the Lineweaver–Burk plots. Immediately prior to use, hemin was dissolved at 10 mM in 0.1 M NaOH and diluted with 40 mM Tris–HCl (pH 7.5).
Fig. 2 Heterologous expression of PcGAPDH and inhibitory effect of hemin on GAPDH reaction. A M, molecular weight marker; lane 1, rPcGAPDH-His-tag; lane 2, His-tag-cleaved rPcGAPDH. B Reaction mixtures containing 2.5 nM rPcGAPDH, 40 mM phosphate (pH 7.6), 40 mM triethanolamine, 5 mM NAD^+, and 0.6–2 mM GAP3. […] Inset: secondary plots of each slope of Lineweaver–Burk plots against the concentration of hemin for determining inhibition constants. C Reaction mixtures containing 2.5 nM rPcGAPDH, 40 mM phosphate (pH 7.6), 40 mM triethanolamine, 5 mM NAD^+, and 0.6 mM GAP3. Reactions were started by adding substrates followed by 5-min incubation with either buffer or 1 μM inhibitor (hemin or protoporphyrin IX, PPIX). […] All experiments were performed in triplicate. Bars indicated as mean values ± standard deviation (error bars)

[3] = target: T2, rPcCS (mitochondrial citrate synthase) (Phanerodontia chrysosporium, UniProt Q0EAA7); experiment: CS assay (DTNB method) and steady-state kinetic analysis; assay type: biochemical, Phanerochaete chrysosporium; conditions: at a concentration more than 10 times the inhibitory concentration of hemin (data not shown)
T2 sequence (Q0EAA7 1-446): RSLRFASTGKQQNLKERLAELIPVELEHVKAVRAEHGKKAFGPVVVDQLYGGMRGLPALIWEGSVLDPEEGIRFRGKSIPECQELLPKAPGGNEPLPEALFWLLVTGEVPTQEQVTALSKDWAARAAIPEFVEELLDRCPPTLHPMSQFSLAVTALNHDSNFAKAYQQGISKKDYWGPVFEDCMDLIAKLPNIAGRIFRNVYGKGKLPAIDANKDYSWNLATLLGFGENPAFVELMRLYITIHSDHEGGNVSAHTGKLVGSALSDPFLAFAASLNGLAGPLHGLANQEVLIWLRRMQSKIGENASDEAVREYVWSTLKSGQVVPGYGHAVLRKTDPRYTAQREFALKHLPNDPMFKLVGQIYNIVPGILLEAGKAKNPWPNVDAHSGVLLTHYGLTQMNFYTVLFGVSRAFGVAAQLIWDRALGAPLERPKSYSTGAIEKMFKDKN
Description: CS was assayed by the 5, 5′-dithiobis-2-nitrobenzoic acid (DTNB) method, as described previously (Srere et al. [1963]). […] CS catalyzes the reaction of OAA with AcCoA, generating citrate and CoA. Thus, reactions were monitored by the amount of released CoA, which was followed at 412 nm (ε 13 600 M^–1cm^–1) by the formation of 2-nitro-5-mercaptobenzoic acid, via the reaction of CoA with DTNB. Reactions were monitored for 1 min, and initial velocity was determined. […] Inhibition studies were carried out in the presence of 0–2.5 μM hemin as described above. Kinetic parameters were determined from Lineweaver–Burk plots, and Ki values were determined from the secondary plot of the slopes of the Lineweaver–Burk plots. Hemin and OAA solutions were prepared immediately prior to use.
Fig. 5 Inhibitory effect of hemin on PcCS reaction. […] Reaction mixtures contained 1.5 nM rPcCS, 40 mM Tris-HCl (pH 8.5), and 120 μM DTNB. Fixed substrate was added at 12 μM and variable substrate at 3–12 μM. […] Insets: secondary plots of each slope of Lineweaver–Burk plots against the concentration of hemin for determining inhibition constants.

[4] = substrate: CC(=O)SCCNC(=O)CCNC(=O)[C@H](O)C(C)(C)COP(=O)(O)OP(=O)(O)OC[C@H]1O[C@@H](n2cnc3c(N)ncnc32)[C@H](O)[C@@H]1OP(=O)(O)O; experiment: purified protein, by the assay type; conditions: other: rPcCS, substrate AcCoA; pH 8.5
[5] = substrate: O=C(O)CC(=O)C(=O)O; experiment: purified protein, by the assay type; conditions: other: rPcCS, substrate OAA; pH 8.5

CCC(=O)SCCNC(=O)CCNC(=O)[C@H](O)C(C)(C)COP(=O)(O)OP(=O)(O)OC[C@H]1O[C@@H](n2cnc3c(N)ncnc32)[C@H](O)[C@@H]1OP(=O)(O)O [propionyl-CoA]
mode of inhibition (CS from rat kidney): competitive inhibitors of AcCoA and as non-competitive inhibitors of OAA | mode of inhibition [1]: competitive inhibitors of AcCoA and as non-competitive inhibitors of OAA

C=CC1=C(C)c2cc3[nH]c(cc4nc(cc5[nH]c(cc1n2)c(C)c5CCC(=O)O)C(CCC(=O)O)=C4C)c(C)c3C=C [protoporphyrin IX]
inhibition of PcGAPDH activity [2]: as effectively as by hemin | inhibition of PcCS [3]: slightly inhibited

CC(C)(COP(=O)(O)OP(=O)(O)OC[C@H]1O[C@@H](n2cnc3c(N)ncnc32)[C@H](O)[C@@H]1OP(=O)(O)O)[C@@H](O)C(=O)NCCC(=O)NCCS [CoA, coenzyme A]
mode of inhibition (CS from rat kidney): competitive inhibitors of AcCoA and as non-competitive inhibitors of OAA | mode of inhibition [1]: competitive inhibitors of AcCoA and as non-competitive inhibitors of OAA

B1: rPcCS (mitochondrial citrate synthase) (Phanerodontia chrysosporium) (protein)
chain: RSLRFASTGKQQNLKERLAELIPVELEHVKAVRAEHGKKAFGPVVVDQLYGGMRGLPALIWEGSVLDPEEGIRFRGKSIPECQELLPKAPGGNEPLPEALFWLLVTGEVPTQEQVTALSKDWAARAAIPEFVEELLDRCPPTLHPMSQFSLAVTALNHDSNFAKAYQQGISKKDYWGPVFEDCMDLIAKLPNIAGRIFRNVYGKGKLPAIDANKDYSWNLATLLGFGENPAFVELMRLYITIHSDHEGGNVSAHTGKLVGSALSDPFLAFAASLNGLAGPLHGLANQEVLIWLRRMQSKIGENASDEAVREYVWSTLKSGQVVPGYGHAVLRKTDPRYTAQREFALKHLPNDPMFKLVGQIYNIVPGILLEAGKAKNPWPNVDAHSGVLLTHYGLTQMNFYTVLFGVSRAFGVAAQLIWDRALGAPLERPKSYSTGAIEKMFKDKN
Km [4]: 4.2 µM | Vmax [4]: 25.8 nmol/min/mL | Km [5]: 6.2 µM | Vmax [5]: 31.4 nmol/min/mL
